{
  "source": "ChEMBL document CHEMBL1201862",
  "about": "“PubChem BioAssay data set” (2004)",
  "assay_in_all_cases": "NCI tumour cell line growth inhibition, 48 h",
  "key": {"SW-620": {"test_system": "SW-620"}, "SK-MEL-5": {"test_system": "SK-MEL-5"}, "SN12C": {"test_system": "SN12C"}, "CAKI-1": {"test_system": "CAKI-1"}, "EKVX": {"test_system": "EKVX"}, "OVCAR-8": {"test_system": "OVCAR-8"}, "MDA-MB-231": {"test_system": "MDA-MB-231"}, "KM12": {"test_system": "KM12"}, "OVCAR-4": {"test_system": "OVCAR-4"}, "PC-3": {"test_system": "PC-3"}, "RPMI-8226": {"test_system": "RPMI-8226"}, "HOP-62": {"test_system": "HOP-62"}, "SNB-19": {"test_system": "SNB-19"}, "Malme-3M": {"test_system": "Malme-3M"}, "IGROV-1": {"test_system": "IGROV-1"}, "MDA-N": {"test_system": "MDA-N"}, "HOP-92": {"test_system": "HOP-92"}, "SF-539": {"test_system": "SF-539"}, "NCI-H460": {"test_system": "NCI-H460"}, "UACC-257": {"test_system": "UACC-257"}, "MCF7": {"test_system": "MCF7"}, "M14": {"test_system": "M14"}, "RXF 393": {"test_system": "RXF 393"}, "LOX IMVI": {"test_system": "LOX IMVI"}, "K562": {"test_system": "K562"}, "SR": {"test_system": "SR"}, "HL-60": {"test_system": "HL-60"}, "OVCAR-3": {"test_system": "OVCAR-3"}, "SF-295": {"test_system": "SF-295"}, "A549": {"test_system": "A549"}, "UACC-62": {"test_system": "UACC-62"}, "HCT-116": {"test_system": "HCT-116"}, "SK-MEL-28": {"test_system": "SK-MEL-28"}, "COLO 205": {"test_system": "COLO 205"}, "NCI-H522": {"test_system": "NCI-H522"}, "OVCAR-5": {"test_system": "OVCAR-5"}, "NCI/ADR-RES": {"test_system": "NCI/ADR-RES"}, "HCC 2998": {"test_system": "HCC 2998"}, "HT-29": {"test_system": "HT-29"}, "MOLT-4": {"test_system": "MOLT-4"}, "CCRF-CEM": {"test_system": "CCRF-CEM"}, "UO-31": {"test_system": "UO-31"}, "HCT-15": {"test_system": "HCT-15"}, "NCI-H23": {"test_system": "NCI-H23"}, "SK-OV-3": {"test_system": "SK-OV-3"}, "SNB-75": {"test_system": "SNB-75"}, "A498": {"test_system": "A498"}, "TK-10": {"test_system": "TK-10"}, "ACHN": {"test_system": "ACHN"}, "SK-MEL-2": {"test_system": "SK-MEL-2"}, "NCI-H226": {"test_system": "NCI-H226"}, "DU-145": {"test_system": "DU-145"}, "BT-549": {"test_system": "BT-549"}, "MDA-MB-435": {"test_system": "MDA-MB-435"}, "786-0": {"test_system": "786-0"}, "Hs-578T": {"test_system": "Hs-578T"}, "SF-268": {"test_system": "SF-268"}, "U-251": {"test_system": "U-251"}, "T47D": {"test_system": "T47D"}},
  "note": "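Five compound concentrations were applied to cells in 96-well plates for 48 hours; endpoints were derived by simple linear interpolation of the resulting dose-response curve. GI50 is the concentration that inhibits growth by half.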 Activity calls are given as the source filed them. Rule as the data show it: active = GI50 up to about 1.1 µM and inactive = higher.",
  "data": [
    {"smiles": "COc1ccc2c(CCNS(=O)(=O)c3ccccc3)c(C(C)=O)[nH]c2c1", "values": [
      {"measurement": "GI50", "setting": "SW-620", "result": "> 100 µM (inactive)"},
      {"measurement": "GI50", "setting": "SK-MEL-5", "result": "> 42.8 µM (inactive)"},
      {"measurement": "GI50", "setting": "SN12C", "result": "38.5 µM (inactive)"},
      {"measurement": "GI50", "setting": "CAKI-1", "result": "1 µM (active)"},
      {"measurement": "GI50", "setting": "EKVX", "result": "> 100 µM (inactive)"},
      {"measurement": "GI50", "setting": "OVCAR-8", "result": "> 69.3 µM (inactive)"},
      {"measurement": "GI50", "setting": "MDA-MB-231", "result": "> 85.5 µM (inactive)"},
      {"measurement": "GI50", "setting": "KM12", "result": "54.2 µM (inactive)"},
      {"measurement": "GI50", "setting": "OVCAR-4", "result": "51.6 µM (inactive)"},
      {"measurement": "GI50", "setting": "PC-3", "result": "> 71.9 µM (inactive)"},
      {"measurement": "GI50", "setting": "RPMI-8226", "result": "> 100 µM (inactive)"},
      {"measurement": "GI50", "setting": "HOP-62", "result": "> 50.6 µM (inactive)"},
      {"measurement": "GI50", "setting": "SNB-19", "result": "66.7 µM (inactive)"},
      {"measurement": "GI50", "setting": "Malme-3M", "result": "> 100 µM (inactive)"},
      {"measurement": "GI50", "setting": "IGROV-1", "result": "34.4 µM (inactive)"},
      {"measurement": "GI50", "setting": "MDA-N", "result": "> 71.3 µM (inactive)"},
      {"measurement": "GI50", "setting": "HOP-92", "result": "> 100 µM (inactive)"},
      {"measurement": "GI50", "setting": "SF-539", "result": "82.4 µM (inactive)"},
      {"measurement": "GI50", "setting": "NCI-H460", "result": "> 100 µM (inactive)"},
      {"measurement": "GI50", "setting": "UACC-257", "result": "> 32.4 µM (inactive)"},
      {"measurement": "GI50", "setting": "MCF7", "result": "51.4 µM (inactive)"},
      {"measurement": "GI50", "setting": "M14", "result": "> 64.4 µM (inactive)"},
      {"measurement": "GI50", "setting": "RXF 393", "result": "> 100 µM (inactive)"},
      {"measurement": "GI50", "setting": "LOX IMVI", "result": "> 68.2 µM (inactive)"},
      {"measurement": "GI50", "setting": "K562", "result": "> 74 µM (inactive)"},
      {"measurement": "GI50", "setting": "SR", "result": "64.6 µM (inactive)"},
      {"measurement": "GI50", "setting": "HL-60", "result": "> 75.3 µM (inactive)"},
      {"measurement": "GI50", "setting": "OVCAR-3", "result": "> 100 µM (inactive)"},
      {"measurement": "GI50", "setting": "SF-295", "result": "80.4 µM (inactive)"},
      {"measurement": "GI50", "setting": "A549", "result": "54.3 µM (inactive)"},
      {"measurement": "GI50", "setting": "UACC-62", "result": "> 58.5 µM (inactive)"},
      {"measurement": "GI50", "setting": "HCT-116", "result": "45.3 µM (inactive)"},
      {"measurement": "GI50", "setting": "SK-MEL-28", "result": "63.8 µM (inactive)"},
      {"measurement": "GI50", "setting": "COLO 205", "result": "> 73.6 µM (inactive)"},
      {"measurement": "GI50", "setting": "NCI-H522", "result": "20.5 µM (inactive)"},
      {"measurement": "GI50", "setting": "OVCAR-5", "result": "> 88.9 µM (inactive)"},
      {"measurement": "GI50", "setting": "NCI/ADR-RES", "result": "63.2 µM (inactive)"},
      {"measurement": "GI50", "setting": "HCC 2998", "result": "> 100 µM (inactive)"},
      {"measurement": "GI50", "setting": "HT-29", "result": "> 46.8 µM (inactive)"},
      {"measurement": "GI50", "setting": "MOLT-4", "result": "48.8 µM (inactive)"},
      {"measurement": "GI50", "setting": "CCRF-CEM", "result": "> 65.2 µM (inactive)"},
      {"measurement": "GI50", "setting": "UO-31", "result": "9.51 µM (inactive)"},
      {"measurement": "GI50", "setting": "HCT-15", "result": "> 75.2", "unit": "µM"},
      {"measurement": "GI50", "setting": "NCI-H23", "result": "8.3 µM (inactive)"},
      {"measurement": "GI50", "setting": "SK-OV-3", "result": "> 80.9 µM (inactive)"},
      {"measurement": "GI50", "setting": "SNB-75", "result": "52.8 µM (inactive)"},
      {"measurement": "GI50", "setting": "A498", "result": "> 62.7 µM (inactive)"},
      {"measurement": "GI50", "setting": "TK-10", "result": "> 100 µM (inactive)"},
      {"measurement": "GI50", "setting": "ACHN", "result": "3.15 µM (inactive)"},
      {"measurement": "GI50", "setting": "SK-MEL-2", "result": "> 100 µM (inactive)"},
      {"measurement": "GI50", "setting": "NCI-H226", "result": "> 100 µM (inactive)"},
      {"measurement": "GI50", "setting": "DU-145", "result": "> 80.2 µM (inactive)"},
      {"measurement": "GI50", "setting": "BT-549", "result": "33.8 µM (inactive)"},
      {"measurement": "GI50", "setting": "MDA-MB-435", "result": "12.3 µM (inactive)"},
      {"measurement": "GI50", "setting": "786-0", "result": "49.5 µM (inactive)"},
      {"measurement": "GI50", "setting": "Hs-578T", "result": "46 µM (inactive)"},
      {"measurement": "GI50", "setting": "SF-268", "result": "52.1 µM (inactive)"},
      {"measurement": "GI50", "setting": "U-251", "result": "> 74.3 µM (inactive)"},
      {"measurement": "GI50", "setting": "T47D", "result": "> 52.2 µM (inactive)"}
    ]}
  ]
}
